Assay results published in patent US8507010B2, “Compositions comprising quinazoline derivatives” (Shanghai Allist Pharmaceuticals, Inc., priority 2008, dated 2013).

How the values were obtained:
in vivo = conditions: male, SD, rat
Method: Intragastric administration (ig): 16 healthy SD rats (Shanghai Super-B&K Laboratory Animal Corp. Ltd., grade SPF), male, weighted 200-250 g, randomly divided into four groups, were each administered intragastrically with a drug: the compound prepared according to Example 1 (21.68 mg/kg), crystalline form A, crystalline form B, or crystalline form C (30 mg/kg) of p-toluenesulfonate of said compound. The blood samples were collected at 0.5 h, 1.0 h, 1.5 h, 2.0 h, 3.0 h, 5.0 h, 7.0 h, 9.0 h, 12 h, and 24 h after administration, which were then isolated to prepare the plasma. The concentrations of the drugs in the plasma were determined by means of liquid phase chromatography/tandem mass spectrometer (Agilent 1200LC/6410B), and the concentration-time curve was obtained.

erbB-2 kinase = erbB-2 kinase (Homo sapiens, UniProt P04626); conditions: stated in CN 200610023526.7 / WO 2007/082434; cited from earlier work
[1] = tested on: human epidermoid squamous carcinoma cell A431; conditions: stated in CN 200610023526.7 / WO 2007/082434; cited from earlier work
[2] = tested on: human breast cancer cell BT-474; conditions: stated in CN 200610023526.7 / WO 2007/082434; cited from earlier work
[3] = tested on: human epidermoid squamous carcinoma cell A431; conditions: stated in CN 200610023526.7 / WO 2007/082434; cited from earlier work; remark: listed apart in the source

erbB-2 kinase, sequence (P04626 23-1255): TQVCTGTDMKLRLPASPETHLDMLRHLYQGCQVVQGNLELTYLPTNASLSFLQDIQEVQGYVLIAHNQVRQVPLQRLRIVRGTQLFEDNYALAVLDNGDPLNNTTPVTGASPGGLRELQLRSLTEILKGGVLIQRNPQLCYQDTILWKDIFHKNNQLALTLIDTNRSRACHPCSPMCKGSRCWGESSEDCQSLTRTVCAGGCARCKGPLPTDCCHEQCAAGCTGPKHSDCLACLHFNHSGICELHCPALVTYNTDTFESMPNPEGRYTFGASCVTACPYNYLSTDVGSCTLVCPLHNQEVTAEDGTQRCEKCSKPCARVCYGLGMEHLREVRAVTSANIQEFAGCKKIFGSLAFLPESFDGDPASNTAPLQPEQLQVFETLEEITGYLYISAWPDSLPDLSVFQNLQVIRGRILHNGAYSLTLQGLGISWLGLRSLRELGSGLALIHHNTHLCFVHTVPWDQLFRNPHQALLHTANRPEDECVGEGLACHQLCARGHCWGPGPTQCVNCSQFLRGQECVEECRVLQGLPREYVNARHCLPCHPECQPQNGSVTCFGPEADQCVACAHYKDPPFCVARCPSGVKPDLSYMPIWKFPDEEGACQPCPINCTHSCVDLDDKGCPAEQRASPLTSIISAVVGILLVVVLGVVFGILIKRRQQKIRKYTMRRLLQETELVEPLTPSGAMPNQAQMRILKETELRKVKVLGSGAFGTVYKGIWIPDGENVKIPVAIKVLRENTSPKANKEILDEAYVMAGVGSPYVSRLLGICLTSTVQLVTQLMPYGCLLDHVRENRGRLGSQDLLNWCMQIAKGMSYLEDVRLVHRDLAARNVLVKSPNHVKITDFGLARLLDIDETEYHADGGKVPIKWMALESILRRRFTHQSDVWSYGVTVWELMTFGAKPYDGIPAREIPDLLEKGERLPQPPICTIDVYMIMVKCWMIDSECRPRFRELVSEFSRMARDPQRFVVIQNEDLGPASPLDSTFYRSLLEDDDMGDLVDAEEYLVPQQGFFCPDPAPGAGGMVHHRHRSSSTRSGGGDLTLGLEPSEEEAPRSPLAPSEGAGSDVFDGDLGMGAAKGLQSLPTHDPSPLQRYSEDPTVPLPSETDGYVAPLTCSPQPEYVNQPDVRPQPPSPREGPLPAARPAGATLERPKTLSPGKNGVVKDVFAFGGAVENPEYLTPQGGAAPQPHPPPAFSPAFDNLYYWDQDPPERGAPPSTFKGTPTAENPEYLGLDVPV

bioavailability (in vivo; absolute bioavailability): 0.95%
AUC(0-t) (in vivo; po, 21.68 mg/kg, AUC0-t): 106 ng·h/mL
Cmax (in vivo; po, 21.68 mg/kg, Cmax): 32 ng/mL
half-life (in vivo; po, 21.68 mg/kg, T1/2): 1.81 h
Tmax (in vivo; po, 21.68 mg/kg, Tmax): 0.75 h
Compound: C=CC(=O)Nc1ccc2ncnc(Nc3ccc(OCc4cccc(F)c4)c(Cl)c3)c2c1 [The compound of Example 1, N-{4-[3-chloro-4-(3-fluoro-benzyloxy)phenylamino]quinazolin-6-yl}-acrylamide]
inhibitory activity against erbB-2 kinase (in words) (erbB-2 kinase): excellent inhibitory activity
inhibitory effect on growth of A431 cells (in words) [1]: remarkable inhibitory effect
inhibitory effect on growth of BT-474 cells (in words) [2]: remarkable inhibitory effect
anti-tumor effect on A431 grafted to a nude mouse (in words) [3]: obvious anti-tumor effect
